Measurements reported in patent US9272047B2, “Use of biological surfactant as anti-inflammatory agent and tissue preservative solution” (Shaperon Inc., priority 2007, dated 2016).
Entries after “also recorded” stand apart in the source; their conditions may differ.

Tests used:
NF-κB = assay: Inhibition of E. coli LPS-stimulated NF-κB activation (CD25 expression) in 3FP CHO cells; assay type: cell-based, Chinese hamster; settings: for nuclear transcription factor inhibition: LPS-stimulated 3FP cells, CD25 expression; for inhibition effect for LPS-stimulated CD25 expression (NF-κB activation): live 7AAD(−) LPS-stimulated 3FP cells
Protocol: In order to evaluate the inhibition efficacy for the activation of E. coli LPS-stimulated NF-κB in a CHO cell, % expression of CD 25 in the CHO cell was evaluated as the following method, and FACS analysis after staining with 7-AAD was carried out to evaluate the cytotoxicity. Bile salts were classified into 3 groups based on their solubility in different solvents, as follows:
The CHO cells expressing CD25 under the regulation of a nuclear factor (NF-κB) promoter, shown FIG. 2A, were used for this experiment. Toll-like receptor 2 (TLR2) and CD14 gene-transformed CHO cells (hereinafter referred to as “3FP cells”) were also used.
The next day, the cultured cells were treated with bile acid derivatives and LPS, and were incubated in a CO2 incubator for 15 hr at 37° C.
After stimulating the above incubated cells for 15 hr, the culture solution was centrifuged (1200 rpm, 5 min, 4° C.) to remove the culture supernatant. The precipitate was washed twice with 200 μl of FACS buffer (1×PBS containing 1% BSA and 1 mM EDTA). 20 μl of blocking solution (PBS containing 1:10 of normal mouse serum and 1:3 of anti-human CD14/CD32 (BD, 2.4G2) was added to each well and reacted on an ice for 30 min. A mixture solution of anti-human CD25-PE (1:16) and anti-human CD14-FITC (1:32) was added to the well and then reacted on the ice for 30 min. The reaction mixture was washed twice with 200 μl of FACS buffer, and then 200 μl of 7-AAD (1:20) was added to the reaction mixture. After the reaction mixture was reacted on the ice for 10 min, CD25 expression efficacy and cytotoxicity were analyzed by using a flow cytometer.
In order to analyze living cells, 7-AAD(−) cells were selected and an activation of nuclear transcription factor was confirmed by the increase of CD25 expression.

abdominal cells = assay: Toxicity to abdominal cells separated from mice after abdominal administration (7AAD); assay type: in vivo, C57BL/6 mouse; settings: 5 mg (250 mg/kg) into abdomen, cells separated after 1 hour
Protocol: In order to assay the toxicity of sodium glycocholate to a mouse, experiments were performed to five C57BL/6 male mice of 7-9 weeks age per each group. Sodium glycocholate dissolved in PBS was kept in vitro for 1 hour at 37° C., and then the sodium glycocholate solution was administered into the abdomen of the mice followed by the cell analysis. After 1 hour from the administration, the abdominal cells were separated and stained with 7AAD, and then the abdominal cells were analyzed. Cells which were freezed and thawed at least five times were used for a positive control group in 7ADD staining. Experimental results were statistically analyzed by t-test, and p<0.05 compared with the experimental group which was not treated with sodium glycocholate.

macrophages [1] = assay: In vitro proinflammatory cytokine generation by E. coli LPS, macrophages (ELISA); assay type: cell-based, C57BL/6 mouse; settings: LPS stimulation
Protocol: In order to assay the effect of sodium glycocholate on the generation of proinflammatory cytokines induced by E. coli LPS, dendritic cells were prepared in the same way as Example 3, and macrophages were separated from the abdomen of C57BL/6 mouse. Thereafter, sodium glycocholate and LPS were reacted in vitro for 1 hour at 37° C., and then mixed with the cells. Each cell was stimulated for 14 hours at 37° C., and then supernatant fluid was separated.
The concentrations of TNF-α and interleukin-12p40 in the separated supernatant fluid was measured by an enzyme-linked immunoabsorbent assay (ELISA).
Each group was treated and assayed at least twice, and the results were statistically analyzed through t-test. The results were p<0.05 compared with the experimental groups treated by only LPS.

dendritic cells [2] = assay: Inhibition of E. coli LPS-induced activation of dendritic cells (CD40, CD80, CD86, I-Ab expression); assay type: cell-based, mouse; settings: 100 ng/ml E. coli LPS; CD11c(+)/7AAD(−) dendritic cells
Protocol: In order to assay the effect of sodium glycocholate on the activation procedure of antigen presenting cells, which is induced by E. coli LPS, cells were separated from the bone marrow of recombination activating gene 2 (Rag2) deficient mouse. The separated cells were plated at 2×10^5 cells/well in a 96-well plate and then treated with 1.5 ng/ml of granulocyt-macrophage colony-stimulating factor (GM-CSF) and 0.75 ng/ml of interleukin-4 followed by the differentiation of the cells into dentritic cells through 6-day incubation.
The dendritic cells were well mixed with sodium glycocholate and LPS. The mixtures were stimulated for 18 hours at 37° C., and stained with anti-CD40-FITC, anti-CD80-FITC, anti-I-Ab-PE, anti-CD86-PE, 7AAD and anti-CD11c-APC, then the cells were assayed via a flow cytometer. Each group was treated and assayed at least twice, and the results were statistically analyzed through t-test. The results were p<0.05 compared with the experimental groups treated by only LPS.
As shown FIGS. 9A-9B to 11A-11B, in order to assay only living dedritic cells, CD11c(+)/7AAD(−) cells were selected and then the expressions of dendritic cell costimulatory molecules and I-Ab were assayed.

dendritic cells [3] = assay: Cytotoxicity to dendritic cells (7AAD, FACS); assay type: cell-based, mouse
Protocol: The cytotoxicity of sodium glycocholate to the CHO cells, dendritic cells, T cells which were used in the above Examples was assayed. FACS analysis was performed after staining with 7AAD. First, sodium glycocholate was kept in vitro for 1 hour at 37° C., and then mixed with cells. CHO cells or dendritic cells were incubated for 14 hours at 37° C., and T cells which were mixed with 14 hour-incubated dendritic cells, were incubated for 4 days. Then, each cell was stained with 7AAD and cell analysis were carried out by using a flow cytometer.

macrophages [4] = assay: Inhibition of LPS-induced nitric oxide generation, macrophages (Griess); assay type: cell-based, mouse; settings: macrophages stimulated by LPS, 18 hours
Protocol: Then, the resulting dendritic cell mixtures were plated, by […] each, in a 96-well plate. Griss reagents were added to each well, and the 96-well plate was covered with foils and kept reacting for 15 min at room temperature. Absorbance at 540 nm was measured using an ELISA reader. Macrophages separated from abdomen were also treated with sodium glycocholate, sodium taurochenodeoxycholate and sodium taurodeoxycholate, respectively, and then stimulated with LPS for 18 hours. Thereafter, the same experiments as the dentritic cells were performed to the macrophages.

[5] = tested on: LPS-administered C57BL/6 mouse; assay: In vivo serum cytokines in LPS-administered mice (CBA kit)
Protocol: As described in Example 7, 20 mg/kg of LPS was administered into the abdomen of mice and then 12.5 mg/kg of sodium glycocholate, and 20 mg/kg of LPS and 50 mg/kg of sodium glycocholate respectively was administered twice into the abdomen of mice, respectively. At the predetermined time, blood was collected from mouse tail and then serum was obtained by centrifugation (2400×g, 10 min). The change of cytokine expression in the serum was measured by using cytometric bead array (CBA) kit.

With C[C@H](CCC(=O)NCC(=O)[O-])[C@H]1CC[C@H]2[C@@H]3[C@H](O)C[C@@H]4C[C@H](O)CC[C@]4(C)[C@H]3C[C@H](O)[C@]12C.[Na+] [sodium glycocholate] the “nuclear transcription factor inhibition” value (NF-κB; 0.5 mg/ml) was 21.7±0.9%, the “nuclear transcription factor inhibition” value (NF-κB; 1 mg/ml) was 88.2±1.2% and the “inhibition effect for LPS-stimulated CD25 expression (NF-κB activation)” value (NF-κB) was “inhibited depending on the concentration”. The “inhibition effect for LPS-stimulated CD25 expression (NF-κB activation)” value (NF-κB; listed as sodium glycocholate hydrate) was “showed an inhibition effect”, the “cytotoxicity for abdominal cells (survival rate of the abdominal cells versus PBS control)” value (abdominal cells) was “no significant difference; also recorded: dose not have cytotoxicity” and the “inhibition of generation of TNF-α” value (macrophages [1]; 0.5 mg/ml) was 42.2±0.9%. For the same compound, the “inhibition of generation of interleukine-12p40” value (macrophages [1]; 0.5 mg/ml) was 9.8±11.0%, the “inhibition of generation of TNF-α” value (macrophages [1]; 1 mg/ml) was 87.8±0.2% and the “inhibition of generation of interleukine-12p40” value (macrophages [1]; 1 mg/ml) was 54.3±4.1%. For the same compound, the “increased expression of CD40, CD80, CD86 and I-Ab” value (dendritic cells [2]) was “inhibited depending on the concentration”, the cytotoxicity (dendritic cells [3]; 1 mg/ml) was “no significant cytotoxicity; also recorded: dose not have cytotoxicity” and the “7AAD(+) increase compared with the negative control group” value (dendritic cells [3]; 14 hours) was 2-4%. For the same compound, the “generation of NO” value (macrophages [4]) was “inhibited”, the IL-10 in serum [5] was “significantly increased; also recorded: increase” and the IFN-g in serum ([5]; after 4, 8 and 12 hours) was “decrease”. For the same compound, the IL-12p70 in serum ([5]; after 4, 8 and 12 hours) was “decrease”, the IL-6 in serum ([5]; after 12, 24 and 48 hours) was “remarkably decreased; also recorded: decrease” and the MCP-1 in serum ([5]; after 12, 24 and 48 hours) was “remarkably decreased; also recorded: decrease”. For the same compound, the TNF-α in serum ([5]; after 12, 24 and 48 hours) was “remarkably decreased; also recorded: decrease”.
